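Compound exposure: 48 hours, 5 concentrations, 96-well plates. The concentration for full growth arrest is given as TGI.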
How the values were obtained:
Test in all cases: NCI tumour cell line growth inhibition, 48 h
SN12C renal = test system: SN12C renal
MALME-3M melanoma = test system: MALME-3M melanoma
OVCAR-5 ovarian = test system: OVCAR-5 ovarian
MDA-MB-231 breast = test system: MDA-MB-231 breast
SF-539 CNS = test system: SF-539 CNS
UACC-257 melanoma = test system: UACC-257 melanoma
BT-549 breast = test system: BT-549 breast
NCI-H522 lung = test system: NCI-H522 lung
COLO 205 colon = test system: COLO 205 colon
OVCAR-3 ovarian = test system: OVCAR-3 ovarian
OVCAR-8 ovarian = test system: OVCAR-8 ovarian
HCT-15 colon = test system: HCT-15 colon
NCI-H460 lung = test system: NCI-H460 lung
M14 melanoma = test system: M14 melanoma
HL-60(TB) leukemia = test system: HL-60(TB) leukemia
SK-MEL-2 melanoma = test system: SK-MEL-2 melanoma
T-47D breast = test system: T-47D breast
NCI/ADR-RES ovarian = test system: NCI/ADR-RES ovarian
SW-620 colon = test system: SW-620 colon
K-562 leukemia = test system: K-562 leukemia
RPMI-8226 leukemia = test system: RPMI-8226 leukemia
MOLT-4 leukemia = test system: MOLT-4 leukemia
CCRF-CEM leukemia = test system: CCRF-CEM leukemia
HT29 colon = test system: HT29 colon
DU-145 prostate = test system: DU-145 prostate
KM12 colon = test system: KM12 colon
PC-3 prostate = test system: PC-3 prostate
SK-MEL-5 melanoma = test system: SK-MEL-5 melanoma
SNB-19 CNS = test system: SNB-19 CNS
MDA-MB-435 = test system: MDA-MB-435
SNB-75 CNS = test system: SNB-75 CNS
SF-295 CNS = test system: SF-295 CNS
HCT-116 colon = test system: HCT-116 colon
IGROV1 ovarian = test system: IGROV1 ovarian
SR leukemia = test system: SR leukemia
NCI-H23 lung = test system: NCI-H23 lung
UO-31 renal = test system: UO-31 renal
ACHN renal = test system: ACHN renal
MCF7 breast = test system: MCF7 breast
MDA-N = test system: MDA-N
SK-MEL-28 melanoma = test system: SK-MEL-28 melanoma
A498 renal = test system: A498 renal
786-0 renal = test system: 786-0 renal
U251 CNS = test system: U251 CNS
EKVX NSCLC = test system: EKVX NSCLC
LOX IMVI melanoma = test system: LOX IMVI melanoma
HS 578T breast = test system: HS 578T breast
SK-OV-3 ovarian = test system: SK-OV-3 ovarian
CAKI-1 renal = test system: CAKI-1 renal
SF-268 CNS = test system: SF-268 CNS
TK-10 renal = test system: TK-10 renal
RXF 393 renal = test system: RXF 393 renal
UACC-62 melanoma = test system: UACC-62 melanoma
HOP-92 NSCLC = test system: HOP-92 NSCLC
OVCAR-4 ovarian = test system: OVCAR-4 ovarian
A549 NSCLC = test system: A549 NSCLC
NCI-H226 lung = test system: NCI-H226 lung
HCC-2998 colon = test system: HCC-2998 colon
HOP-62 NSCLC = test system: HOP-62 NSCLC

## Cc1[nH]c2ccccc2c1C=Nc1ccc(Oc2ccccc2)cc1
SN12C renal
  TGI: 31.9 µM
MALME-3M melanoma
  TGI: 34.6 µM
OVCAR-5 ovarian
  TGI: 30 µM
MDA-MB-231 breast
  TGI: 32.2 µM
SF-539 CNS
  TGI: 33 µM
UACC-257 melanoma
  TGI: 31.8 µM
BT-549 breast
  TGI: 35.5 µM
NCI-H522 lung
  TGI: 31.6 µM
COLO 205 colon
  TGI: 30.1 µM
OVCAR-3 ovarian
  TGI: 27.6 µM
OVCAR-8 ovarian
  TGI: 43.4 µM
HCT-15 colon
  TGI: 35 µM
NCI-H460 lung
  TGI: 40 µM
M14 melanoma
  TGI: 30.3 µM
HL-60(TB) leukemia
  TGI: 32.3 µM
SK-MEL-2 melanoma
  TGI: 34.3 µM
T-47D breast
  TGI: 40.5 µM
NCI/ADR-RES ovarian
  TGI: 38.8 µM
SW-620 colon
  TGI: 42.6 µM
K-562 leukemia
  TGI: 58.1 µM
RPMI-8226 leukemia
  TGI: 35.4 µM
MOLT-4 leukemia
  TGI: 35.7 µM
CCRF-CEM leukemia
  TGI: 28.9 µM
HT29 colon
  TGI: 31.3 µM
DU-145 prostate
  TGI: 30.4 µM
KM12 colon
  TGI: 31.4 µM
PC-3 prostate
  TGI: 26.9 µM
SK-MEL-5 melanoma
  TGI: 28.9 µM
SNB-19 CNS
  TGI: 33.1 µM
MDA-MB-435
  TGI: 31.8 µM
SNB-75 CNS
  TGI: 26.1 µM
SF-295 CNS
  TGI: 29.1 µM
HCT-116 colon
  TGI: 31.3 µM
IGROV1 ovarian
  TGI: 28.3 µM
SR leukemia
  TGI: 51 µM
NCI-H23 lung
  TGI: 32.1 µM
UO-31 renal
  TGI: 24.4 µM
ACHN renal
  TGI: 30.8 µM
MCF7 breast
  TGI: 39.7 µM
MDA-N
  TGI: 31.9 µM
SK-MEL-28 melanoma
  TGI: 34.7 µM
A498 renal
  TGI: 37 µM
786-0 renal
  TGI: 30.3 µM
U251 CNS
  TGI: 29.3 µM
EKVX NSCLC
  TGI: 27.4 µM
LOX IMVI melanoma
  TGI: 32.8 µM
HS 578T breast
  TGI: 52 µM
SK-OV-3 ovarian
  TGI: 32 µM
CAKI-1 renal
  TGI: 30.4 µM
SF-268 CNS
  TGI: 34.1 µM
TK-10 renal
  TGI: 30.2 µM
RXF 393 renal
  TGI: 31.7 µM
UACC-62 melanoma
  TGI: 32 µM
HOP-92 NSCLC
  TGI: 31.2 µM
OVCAR-4 ovarian
  TGI: 34.6 µM
A549 NSCLC
  TGI: 32.3 µM

## CC(C)C(N)(C(=O)O)c1ccccc1 (stereo unspecified)
NCI-H226 lung
  TGI: > 100 µM
SN12C renal
  TGI: > 100 µM
MALME-3M melanoma
  TGI: > 100 µM
OVCAR-5 ovarian
  TGI: > 100 µM
MDA-MB-231 breast
  TGI: > 100 µM
UACC-257 melanoma
  TGI: > 100 µM
BT-549 breast
  TGI: > 100 µM
NCI-H522 lung
  TGI: > 100 µM
COLO 205 colon
  TGI: > 100 µM
OVCAR-3 ovarian
  TGI: > 100 µM
OVCAR-8 ovarian
  TGI: > 100 µM
HCT-15 colon
  TGI: > 100 µM
NCI-H460 lung
  TGI: > 100 µM
M14 melanoma
  TGI: > 100 µM
HL-60(TB) leukemia
  TGI: > 100 µM
SK-MEL-2 melanoma
  TGI: > 100 µM
T-47D breast
  TGI: > 100 µM
NCI/ADR-RES ovarian
  TGI: > 100 µM
SW-620 colon
  TGI: > 100 µM
K-562 leukemia
  TGI: > 100 µM
RPMI-8226 leukemia
  TGI: > 100 µM
CCRF-CEM leukemia
  TGI: > 100 µM
HT29 colon
  TGI: > 100 µM
DU-145 prostate
  TGI: > 100 µM
KM12 colon
  TGI: > 100 µM
PC-3 prostate
  TGI: > 100 µM
SK-MEL-5 melanoma
  TGI: > 100 µM
SNB-19 CNS
  TGI: > 100 µM
MDA-MB-435
  TGI: > 100 µM
SNB-75 CNS
  TGI: > 100 µM
SF-295 CNS
  TGI: > 100 µM
HCT-116 colon
  TGI: > 100 µM
IGROV1 ovarian
  TGI: > 100 µM
SR leukemia
  TGI: > 100 µM
NCI-H23 lung
  TGI: > 100 µM
UO-31 renal
  TGI: > 100 µM
ACHN renal
  TGI: > 100 µM
MCF7 breast
  TGI: > 100 µM
HCC-2998 colon
  TGI: > 100 µM
MDA-N
  TGI: > 100 µM
SK-MEL-28 melanoma
  TGI: > 100 µM
A498 renal
  TGI: > 100 µM
786-0 renal
  TGI: > 100 µM
U251 CNS
  TGI: > 100 µM
EKVX NSCLC
  TGI: > 100 µM
LOX IMVI melanoma
  TGI: > 100 µM
HS 578T breast
  TGI: > 100 µM
HOP-62 NSCLC
  TGI: > 100 µM
SK-OV-3 ovarian
  TGI: > 100 µM
CAKI-1 renal
  TGI: > 100 µM
SF-268 CNS
  TGI: > 100 µM
TK-10 renal
  TGI: > 100 µM
RXF 393 renal
  TGI: > 100 µM
UACC-62 melanoma
  TGI: > 100 µM
HOP-92 NSCLC
  TGI: > 100 µM
OVCAR-4 ovarian
  TGI: > 100 µM
A549 NSCLC
  TGI: > 100 µM

## COc1ccc(C(Nc2ncccn2)c2cc3c(cc2O)OCO3)cc1 (stereo unspecified)
NCI-H226 lung
  TGI: 44.6 µM
SN12C renal
  TGI: 37.8 µM
MALME-3M melanoma
  TGI: 54.6 µM
OVCAR-5 ovarian
  TGI: 69.6 µM
MDA-MB-231 breast
  TGI: 48.2 µM
SF-539 CNS
  TGI: 33.1 µM
UACC-257 melanoma
  TGI: 36.4 µM
BT-549 breast
  TGI: 64.3 µM
NCI-H522 lung
  TGI: 31.7 µM
COLO 205 colon
  TGI: 70.6 µM
OVCAR-3 ovarian
  TGI: 32.7 µM
OVCAR-8 ovarian
  TGI: 45.2 µM
HCT-15 colon
  TGI: 44.6 µM
NCI-H460 lung
  TGI: 47.2 µM
M14 melanoma
  TGI: 39.4 µM
HL-60(TB) leukemia
  TGI: 46 µM
SK-MEL-2 melanoma
  TGI: 46.9 µM
T-47D breast
  TGI: 28 µM
NCI/ADR-RES ovarian
  TGI: > 100 µM
SW-620 colon
  TGI: 28.3 µM
K-562 leukemia
  TGI: > 100 µM
RPMI-8226 leukemia
  TGI: > 100 µM
MOLT-4 leukemia
  TGI: 82 µM
HT29 colon
  TGI: 58.4 µM
DU-145 prostate
  TGI: 44.4 µM
KM12 colon
  TGI: 37.8 µM
PC-3 prostate
  TGI: 43.2 µM
SK-MEL-5 melanoma
  TGI: 50.9 µM
SNB-19 CNS
  TGI: 31.1 µM
MDA-MB-435
  TGI: 50.6 µM
SNB-75 CNS
  TGI: 22.7 µM
SF-295 CNS
  TGI: > 100 µM
HCT-116 colon
  TGI: 71.3 µM
IGROV1 ovarian
  TGI: 59.3 µM
SR leukemia
  TGI: 32.4 µM
NCI-H23 lung
  TGI: 35.3 µM
UO-31 renal
  TGI: 34.4 µM
ACHN renal
  TGI: > 100 µM
MCF7 breast
  TGI: 77.3 µM
HCC-2998 colon
  TGI: 47.4 µM
MDA-N
  TGI: 42.3 µM
SK-MEL-28 melanoma
  TGI: 52.4 µM
A498 renal
  TGI: > 100 µM
786-0 renal
  TGI: 39.3 µM
U251 CNS
  TGI: 28.7 µM
EKVX NSCLC
  TGI: 55.7 µM
LOX IMVI melanoma
  TGI: 32.2 µM
HS 578T breast
  TGI: 52.4 µM
HOP-62 NSCLC
  TGI: 54.5 µM
SK-OV-3 ovarian
  TGI: 51.2 µM
CAKI-1 renal
  TGI: 46.9 µM
SF-268 CNS
  TGI: 38.4 µM
TK-10 renal
  TGI: 37.6 µM
RXF 393 renal
  TGI: 36.3 µM
UACC-62 melanoma
  TGI: > 100 µM
HOP-92 NSCLC
  TGI: > 100 µM
OVCAR-4 ovarian
  TGI: > 100 µM
A549 NSCLC
  TGI: > 100 µM
